Target: Protease (Human immunodeficiency virus 1, UniProt Q9YQ12)
Experiment: Inhibition of HIV1 recombinant protease

Protease, sequence (Q9YQ12 whole entry): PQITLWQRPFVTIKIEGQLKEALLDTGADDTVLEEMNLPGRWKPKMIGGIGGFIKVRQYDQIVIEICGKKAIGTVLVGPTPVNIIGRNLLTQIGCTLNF

Row | SMILES | IC50
1 | O=C(N[C@H]1c2ccccc2C[C@H]1O)[C@@H](Cc1ccccc1)C[S+]([O-])C[C@H](Cc1ccccc1)C(=O)N[C@H]1c2ccccc2C[C@H]1O | > 10 µM
2 | O=C(N[C@@H]1c2ccccc2C[C@@H]1O)[C@@H](Cc1ccccc1)C[S+]([O-])C[C@H](Cc1ccccc1)C(=O)N[C@@H]1c2ccccc2C[C@@H]1O (single isomer, unassigned) | 0.0211 µM
3 | N=[S+]([O-])(C[C@H](Cc1ccccc1)C(=O)N[C@@H]1c2ccccc2C[C@@H]1O)C[C@H](Cc1ccccc1)C(=O)N[C@@H]1c2ccccc2C[C@@H]1O | 0.0025 µM

Continued, values first:

Row | IC50 | SMILES
4 | 0.0531 µM | O=C(N[C@H]1c2ccccc2C[C@H]1O)[C@H](Cc1ccccc1)C[S+]([O-])C[C@H](Cc1ccccc1)C(=O)N[C@H]1c2ccccc2C[C@H]1O
5 | 0.0373 µM | N=[S+]([O-])([C@H](Cc1ccccc1)C(=O)N[C@H]1c2ccccc2C[C@H]1O)[C@@H](Cc1ccccc1)C(=O)N[C@H]1c2ccccc2C[C@H]1O
6 | 0.154 µM | N=[S+]([O-])([C@H](Cc1ccccc1)C(=O)N[C@H]1c2ccccc2C[C@H]1O)[C@H](Cc1ccccc1)C(=O)N[C@H]1c2ccccc2C[C@H]1O

Target: Protease (Human immunodeficiency virus 1) (UniProt Q9YQ12)
Experiment: Inhibition of HIV1 recombinant protease at 10 uM

Protease (Human immunodeficiency virus 1), sequence (Q9YQ12 as listed by the source): as the sequence (Q9YQ12 whole entry) above

Row | inhibition | SMILES
7 | 15% | O=C(N[C@H]1c2ccccc2C[C@H]1O)C(CSCC(Cc1ccccc1)C(=O)N[C@H]1c2ccccc2C[C@H]1O)Cc1ccccc1 (stereo partly specified)
8 | 87% | N=[S+]([O-])(C(Cc1ccccc1)C(=O)N[C@H]1c2ccccc2C[C@H]1O)C(Cc1ccccc1)C(=O)N[C@H]1c2ccccc2C[C@H]1O (stereo partly specified)
9 | 30% | O=C(N[C@H]1c2ccccc2C[C@H]1O)C(Cc1ccccc1)S(=O)(=O)C(Cc1ccccc1)C(=O)N[C@H]1c2ccccc2C[C@H]1O (stereo partly specified)
10 | 75% | O=C(N[C@H]1c2ccccc2C[C@H]1O)C(Cc1ccccc1)C[S+]([O-])CC(Cc1ccccc1)C(=O)N[C@H]1c2ccccc2C[C@H]1O (stereo partly specified)

Test system: Human immunodeficiency virus 1
Experiment: Antiviral activity against HIV1
Type: functional, organism-based

Row | IC50 | SMILES
11 | 0.408 µM | N=[S+]([O-])(C[C@H](Cc1ccccc1)C(=O)N[C@@H]1c2ccccc2C[C@@H]1O)C[C@H](Cc1ccccc1)C(=O)N[C@@H]1c2ccccc2C[C@@H]1O
